The values that follow come from patent publication US20240382483A1, “HETEROCYCLIC EGFR INHIBITORS FOR USE IN THE TREATMENT OF CANCER” (Blueprint Medicines Corporation, priority 2021, published 2024).

One assay has as its target T1, EGFR (L858R T790M C797S) (Homo sapiens, UniProt P00533, C797S/L858R/T790M).
T1 construct: purchased SignalChem E10-122VG
Nature of the assay: Biochemical EGFR inhibition assay (Caliper mobility shift), EGFR LRTMCS. The settings on record: LRTMCS (PH) IC50 (nM) @ 1 mM ATP (Num), EGFR LRTMCS mutant. The procedure:
Reactions proceeded until between 10% to 20% total peptides were phosphorylated at room temperature (25° C.) and were terminated with 35 mM 2,2′,2″,2′″-(ethane-1,2-diyldinitrilo)tetraacetic acid (EDTA). Product was detected using the Caliper mobility shift detection method where the phosphorylated peptide (product) and substrate were electrophoretically separated and measured. Percent activity was plotted against log concentration of compound and points to generate an apparent IC50.

The target of assay [1] is T2, intracellular phosphorylation of EGFR in NCI-H1975 cell line that harbors the EGFR L858R T790M mutations (Homo sapiens, UniProt P00533, L858R/T790M).
T2 construct: NCI-H1975 cell line that harbors the EGFR L858R T790M mutations (ATCC, CRL-5908); host or cells: NCI-H1975
T2 sequence (P00533 25-1210 T790M/L858R): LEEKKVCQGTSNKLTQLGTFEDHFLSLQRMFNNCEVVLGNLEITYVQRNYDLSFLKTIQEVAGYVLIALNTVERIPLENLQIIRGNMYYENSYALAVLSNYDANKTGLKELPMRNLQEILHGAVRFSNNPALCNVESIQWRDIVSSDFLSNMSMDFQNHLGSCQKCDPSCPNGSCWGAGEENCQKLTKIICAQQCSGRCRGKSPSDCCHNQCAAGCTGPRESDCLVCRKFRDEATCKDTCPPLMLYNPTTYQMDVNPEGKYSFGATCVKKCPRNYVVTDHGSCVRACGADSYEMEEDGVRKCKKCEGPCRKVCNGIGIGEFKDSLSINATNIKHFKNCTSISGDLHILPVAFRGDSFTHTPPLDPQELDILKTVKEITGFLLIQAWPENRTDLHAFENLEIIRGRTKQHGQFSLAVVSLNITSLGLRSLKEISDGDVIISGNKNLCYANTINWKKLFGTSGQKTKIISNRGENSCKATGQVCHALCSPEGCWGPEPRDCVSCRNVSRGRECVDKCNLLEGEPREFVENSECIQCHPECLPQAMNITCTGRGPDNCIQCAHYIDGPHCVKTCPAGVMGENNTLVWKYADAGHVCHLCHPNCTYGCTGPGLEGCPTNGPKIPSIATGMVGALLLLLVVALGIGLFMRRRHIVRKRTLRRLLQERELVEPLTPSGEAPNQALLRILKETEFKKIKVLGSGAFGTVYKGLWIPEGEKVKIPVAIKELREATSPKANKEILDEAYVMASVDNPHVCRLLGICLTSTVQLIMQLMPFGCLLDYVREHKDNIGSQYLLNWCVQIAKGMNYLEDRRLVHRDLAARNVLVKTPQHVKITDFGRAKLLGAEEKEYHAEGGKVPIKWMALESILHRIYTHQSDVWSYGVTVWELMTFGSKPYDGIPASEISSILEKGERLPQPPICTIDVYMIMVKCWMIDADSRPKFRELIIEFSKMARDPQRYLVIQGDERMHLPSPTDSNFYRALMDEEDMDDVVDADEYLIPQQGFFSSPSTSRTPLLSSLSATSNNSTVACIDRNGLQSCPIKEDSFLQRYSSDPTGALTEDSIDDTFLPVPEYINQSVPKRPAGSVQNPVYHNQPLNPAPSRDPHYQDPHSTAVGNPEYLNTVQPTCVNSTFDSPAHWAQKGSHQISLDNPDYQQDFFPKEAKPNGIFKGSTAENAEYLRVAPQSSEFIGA
Nature of the assay: NCI-H1975 pEGFR AlphaLISA assay. The class given is cell-based. The settings on record: NCI-H1975 cells (EGFR L858R T790M), p-EGFR (Tyr1068), 4-5 hours incubation; read-out: Ext pEGFR H1975 GMean IC50 (nM) Protocol: @Pharmaron AlphaLISA (Num). The procedure: On the next day, the test compounds and DMSO control were added into H1975 cell plate followed by incubation at 37C/5% CO2 for 4-5 hours. […] Then 5 μL of a donor bead mix was added to each well followed by overnight incubation at room temperature in dark. On the next day, the plate was read at a compatible plate reader to obtain pEGFR signal. Percent of pEGFR inhibition was plotted against log concentration of compounds to generate IC50 values.
(In general: Bead proximity is the source of the signal in Alpha formats.)

As a reminder, the IC50 is the concentration that inhibits the measured activity by half.

T1 sequence (P00533 25-1210 T790M/C797S/L858R): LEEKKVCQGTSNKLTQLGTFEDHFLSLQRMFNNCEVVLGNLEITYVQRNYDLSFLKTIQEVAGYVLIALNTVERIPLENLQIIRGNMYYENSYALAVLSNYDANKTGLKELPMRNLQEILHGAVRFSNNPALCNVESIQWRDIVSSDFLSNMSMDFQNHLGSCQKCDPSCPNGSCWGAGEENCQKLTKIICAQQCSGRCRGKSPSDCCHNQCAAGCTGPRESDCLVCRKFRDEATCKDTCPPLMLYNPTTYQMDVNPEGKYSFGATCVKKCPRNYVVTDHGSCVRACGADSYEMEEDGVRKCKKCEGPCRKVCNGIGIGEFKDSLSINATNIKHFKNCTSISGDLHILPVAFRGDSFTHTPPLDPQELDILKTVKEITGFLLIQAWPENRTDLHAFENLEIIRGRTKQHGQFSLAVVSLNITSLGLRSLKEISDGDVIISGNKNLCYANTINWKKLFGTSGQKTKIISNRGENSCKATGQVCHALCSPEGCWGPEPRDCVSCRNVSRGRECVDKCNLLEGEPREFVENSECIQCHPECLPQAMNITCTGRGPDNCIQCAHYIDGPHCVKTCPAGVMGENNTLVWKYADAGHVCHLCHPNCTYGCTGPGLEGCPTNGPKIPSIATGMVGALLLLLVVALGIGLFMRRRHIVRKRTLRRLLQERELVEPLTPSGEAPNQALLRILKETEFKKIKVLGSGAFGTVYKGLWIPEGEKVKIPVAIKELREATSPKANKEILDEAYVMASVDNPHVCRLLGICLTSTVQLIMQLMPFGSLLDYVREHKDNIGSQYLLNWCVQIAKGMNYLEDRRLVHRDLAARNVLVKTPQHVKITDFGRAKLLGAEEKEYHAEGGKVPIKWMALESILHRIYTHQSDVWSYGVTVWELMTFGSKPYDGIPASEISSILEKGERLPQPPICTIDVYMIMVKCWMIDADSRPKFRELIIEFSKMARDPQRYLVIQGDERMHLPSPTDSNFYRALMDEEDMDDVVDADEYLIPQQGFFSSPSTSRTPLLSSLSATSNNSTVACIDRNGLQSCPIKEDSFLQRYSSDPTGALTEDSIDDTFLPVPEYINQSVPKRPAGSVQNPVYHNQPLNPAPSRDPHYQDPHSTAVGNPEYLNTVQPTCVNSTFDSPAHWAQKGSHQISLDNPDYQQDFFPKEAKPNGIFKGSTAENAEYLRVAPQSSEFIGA

Regarding `CC(C)c1cnc(N2CC(C3COC3)C2)c2cnc(Nc3ccnc(N4CC[C@@H](O)[C@@](C)(F)C4)n3)cc12` [Example 101, (3S,4R)-3-fluoro-1-(4-((5-isopropyl-8-(3-(oxetan-3-yl)azetidin-1-yl)-2,7-naphthyridin-3-yl)amino)pyrimidin-2-yl)-3-methylpiperidin-4-ol], the IC50 on EGFR (L858R T790M C797S) was under 15 nM; in assay [1], 30 to 50 nM.
For `C[C@@H](CO)c1cnc(N2CC[C@@H]2C)c2cnc(Nc3ccnc(N4CC[C@@H](O)[C@@](C)(F)C4)n3)cc12` (single isomer, unassigned) [Example 189] the same measures were under 15 nM and 10 to 20 nM.
Turning to `C[C@@H]1[C@H](F)CN1c1ncc([C@@H](C)CO)c2cc(Nc3ccnc(N4CC[C@@H](O)[C@@](C)(F)C4)n3)ncc12` (single isomer, unassigned) [Example 210, (3S,4R)-3-fluoro-1-(4-((8-((2R,3R)-3-fluoro-2-methylazetidin-1-yl)-5-((R)-1-hydroxypropan-2-yl)-2,7-naphthyridin-3-yl)amino)pyrimidin-2-yl)-3-methylpiperidin-4-ol or (3S,4R)-3-fluoro-1-(4-((8-((2R,3R)-3-fluoro-2-methylazetidin-1-yl)-5-((S)-1-hydroxypropan-2-yl)-2,7-naphthyridin-3-yl)amino)pyrimidin-2-yl)-3-methylpiperidin-4-ol], the 50% inhibitory concentration (IC50) was under 15 nM at EGFR (L858R T790M C797S) and 10 to 20 nM in assay [1].
For `CC(C)c1cnc(-c2cnn(S(C)(=O)=O)c2)c2cnc(Nc3ccnc(N4CC[C@@H](O)[C@@](C)(F)C4)n3)cc12` [Example 18, (3S,4R)-3-fluoro-1-(4-((5-isopropyl-8-(1-(methylsulfonyl)-1H-pyrazol-4-yl)-2,7-naphthyridin-3-yl)amino)pyrimidin-2-yl)-3-methylpiperidin-4-ol] the same measures were 15 to 20 nM and 30 to 50 nM.
With `CC(C)c1cnc(N2C[C@H](O)[C@H]2C)c2cnc(Nc3ccnc(N4CC[C@@](C)(O)[C@@H](F)C4)n3)cc12` (single isomer, unassigned) [Example 172, (3S,4R)-3-fluoro-1-(4-((8-((2R,3S)-3-hydroxy-2-methylazetidin-1-yl)-5-isopropyl-2,7-naphthyridin-3-yl)amino)pyrimidin-2-yl)-4-methylpiperidin-4-ol or (3R,4S)-3-fluoro-1-(4-((8-((2R,3S)-3-hydroxy-2-methylazetidin-1-yl)-5-isopropyl-2,7-naphthyridin-3-yl)amino)pyrimidin-2-yl)-4-methylpiperidin-4-ol], the values for the IC50 (on EGFR (L858R T790M C797S); in assay [1]) were 15 to 20 nM and over 50 nM, respectively.
Consider `COCC1(F)CN(c2ncc(C(C)C)c3cc(Nc4ccnc(N5CC[C@@H](O)[C@@](C)(F)C5)n4)ncc23)C1` [Example 68, (3S,4R)-3-fluoro-1-(4-((8-(3-fluoro-3-(methoxymethyl)azetidin-1-yl)-5-isopropyl-2,7-naphthyridin-3-yl)amino)pyrimidin-2-yl)-3-methylpiperidin-4-ol], for which the IC50 at EGFR (L858R T790M C797S) was in the range of 20 to 30 nM; in assay [1], 30 to 50 nM.
For `CC(C)c1cnc(N2CC[C@H](S(C)(=O)=O)C2)c2cnc(Nc3ccnc(N4CC[C@@H](O)[C@@](C)(F)C4)n3)cc12` [Example 75, (3S,4R)-3-fluoro-1-(4-((5-isopropyl-8-((S)-3-(methylsulfonyl)pyrrolidin-1-yl)-2,7-naphthyridin-3-yl)amino)pyrimidin-2-yl)-3-methylpiperidin-4-ol] the same measures were 15 to 20 nM and 10 to 20 nM.
With `CO[C@@H]1CCN(c2nccc(Nc3cc4c(C(C)C)cnc(N5CC(O)C5)c4cn3)n2)C[C@@H]1F` [Example 147, 1-(6-((2-((3S,4R)-3-fluoro-4-methoxypiperidin-1-yl)pyrimidin-4-yl)amino)-4-isopropyl-2,7-naphthyridin-1-yl)azetidin-3-ol], the values for the IC50 (on EGFR (L858R T790M C797S); in assay [1]) were under 15 nM and 20 to 30 nM, respectively.
For `CC(C)c1cnc(N2C[C@H](O)[C@H]2C)c2cnc(Nc3ccnc(N4CC[C@](C)(O)[C@](C)(F)C4)n3)cc12` (single isomer, unassigned) [Example 170, (3R,4S)-3-fluoro-1-(4-((8-((2R,3S)-3-hydroxy-2-methylazetidin-1-yl)-5-isopropyl-2,7-naphthyridin-3-yl)amino)pyrimidin-2-yl)-3,4-dimethylpiperidin-4-ol or (3S,4R)-3-fluoro-1-(4-((8-((2R,3S)-3-hydroxy-2-methylazetidin-1-yl)-5-isopropyl-2,7-naphthyridin-3-yl)amino)pyrimidin-2-yl)-3,4-dimethylpiperidin-4-ol] the same measures were under 15 nM and 20 to 30 nM.
For `CNC(=O)C1(F)CN(c2ncc(C(C)C)c3cc(Nc4ccnc(N5CC[C@@H](O)[C@@](C)(F)C5)n4)ncc23)C1` [Example 85, 3-fluoro-1-(6-((2-((3S,4R)-3-fluoro-4-hydroxy-3-methylpiperidin-1-yl)pyrimidin-4-yl)amino)-4-isopropyl-2,7-naphthyridin-1-yl)-N-methylazetidine-3-carboxamide] the same measures were 20 to 30 nM and 30 to 50 nM.
For `Cc1c(-c2ncc(C(C)C)c3cc(Nc4ccnc(N5CC[C@@H](O)[C@@](C)(F)C5)n4)ncc23)nnn1C` [Example 17, (3S,4R)-1-(4-((8-(1,5-dimethyl-1H-1,2,3-triazol-4-yl)-5-isopropyl-2,7-naphthyridin-3-yl)amino)pyrimidin-2-yl)-3-fluoro-3-methylpiperidin-4-ol] the same measures were under 15 nM and 10 to 20 nM.
For the molecule `Cc1nc(-c2ccc(C(C)C)c3cc(Nc4ccnc(N5CC[C@@H](O)[C@@](C)(F)C5)n4)ncc23)n[nH]1` [Example 26, (3S,4R)-3-fluoro-1-(4-((5-isopropyl-8-(5-methyl-1H-1,2,4-triazol-3-yl)isoquinolin-3-yl)amino)pyrimidin-2-yl)-3-methylpiperidin-4-ol], the concentration for half-maximal inhibition (IC50) was under 15 nM at EGFR (L858R T790M C797S) and 30 to 50 nM in assay [1].
For `CC(C)c1cnc(-c2cnn(C)c2)c2cnc(Nc3ccnc(N4CC[C@@H](O)[C@@](C)(F)C4)n3)cc12` [Example 9, (3S,4R)-3-fluoro-1-(4-((5-isopropyl-8-(1-methyl-1H-pyrazol-4-yl)-2,7-naphthyridin-3-yl)amino)pyrimidin-2-yl)-3-methylpiperidin-4-ol] the same measures were under 15 nM and 30 to 50 nM.
For `CC(C)c1cnc(-c2ncn(C)n2)c2cnc(Nc3ccnc(N4CC[C@@H](O)[C@@](C)(F)C4)n3)cc12` [Example 15, (3S,4R)-3-fluoro-1-(4-((5-isopropyl-8-(1-methyl-1H-1,2,4-triazol-3-yl)-2,7-naphthyridin-3-yl)amino)pyrimidin-2-yl)-3-methylpiperidin-4-ol] the same measures were under 15 nM and over 50 nM.
For `CC(C)c1cnc(N2CC(C(F)F)C2)c2cnc(Nc3ccnc(N4CC[C@@H](O)[C@@](C)(F)C4)n3)cc12` [Example 55, (3S,4R)-1-(4-((8-(3-(difluoromethyl)azetidin-1-yl)-5-isopropyl-2,7-naphthyridin-3-yl)amino)pyrimidin-2-yl)-3-fluoro-3-methylpiperidin-4-ol] the same measures were under 15 nM and 10 to 20 nM.
Take `CC(C)c1cnc(N2CCC23CNC3)c2cnc(Nc3ccnc(N4CC[C@@H](O)[C@@](C)(F)C4)n3)cc12` [Example 190, (3S,4R)-3-fluoro-1-(4-((5-isopropyl-8-(1,6-diazaspiro[3.3]heptan-1-yl)-2,7-naphthyridin-3-yl)amino)pyrimidin-2-yl)-3-methylpiperidin-4-ol]: the IC50 is under 15 nM at EGFR (L858R T790M C797S) and over 50 nM in assay [1].
As for `CC(C)c1cnc(N2CCC23CCN(C)CC3)c2cnc(Nc3ccnc(N4CC[C@@H](O)[C@@](C)(F)C4)n3)cc12` [Example 196, (3S,4R)-3-fluoro-1-(4-((5-isopropyl-8-(7-methyl-1,7-diazaspiro[3.5]nonan-1-yl)-2,7-naphthyridin-3-yl)amino)pyrimidin-2-yl)-3-methylpiperidin-4-ol], the IC50 on EGFR (L858R T790M C797S) was under 15 nM; in assay [1], 10 to 20 nM.
For `CC(C)c1cnc(N2CCC3(C2)CC3(F)F)c2cnc(Nc3ccnc(N4CC[C@@H](O)[C@@](C)(F)C4)n3)cc12` (stereo partly drawn) [Example 63, (3S,4R)-1-(4-((8-(1,1-difluoro-5-azaspiro[2.4]heptan-5-yl)-5-isopropyl-2,7-naphthyridin-3-yl)amino)pyrimidin-2-yl)-3-fluoro-3-methylpiperidin-4-ol] the same measures were 15 to 20 nM and 20 to 30 nM.
Consider `[2H]C([2H])([2H])O[C@@H]1CCN(c2nccc(Nc3cc4c(C(C)C)cnc(N5C[C@H](OCCO)[C@H]5C)c4cn3)n2)C[C@@H]1F` [Example 140, 2-(((2R,3S)-1-(6-((2-((3S,4R)-3-fluoro-4-(methoxy-d3)piperidin-1-yl)pyrimidin-4-yl)amino)-4-isopropyl-2,7-naphthyridin-1-yl)-2-methylazetidin-3-yl)oxy)ethan-1-ol], for which the IC50 is under 15 nM on EGFR (L858R T790M C797S) and under 10 nM in assay [1].
